Measurements published in PubChem BioAssay (NCI).
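Values below derive from 48-hour exposures of cells grown in 96-well plates, with endpoints linearly interpolated between the two concentrations bracketing the appropriate inhibition level. GI50 is the concentration that inhibits growth by half. Definition used: TGI = concentration required for complete inhibition of growth.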

Assays:
Assay in all cases: inhibition of tumour cell growth, NCI panel, 48 h
[1] = system: 786-0 renal
[2] = system: A498 renal
[3] = system: A549 NSCLC
[4] = system: ACHN renal
[5] = system: CAKI-1 renal
[6] = system: CCRF-CEM leukemia
[7] = system: COLO 205 colon
[8] = system: DU-145 prostate
[9] = system: EKVX NSCLC
[10] = system: HCC-2998 colon
[11] = system: HCT-116 colon
[12] = system: HCT-15 colon
[13] = system: HL-60(TB) leukemia
[14] = system: HOP-62 NSCLC
[15] = system: HOP-92 NSCLC
[16] = system: HT29 colon
[17] = system: IGROV1 ovarian
[18] = system: K-562 leukemia
[19] = system: KM12 colon
[20] = system: LOX IMVI melanoma
[21] = system: M14 melanoma
[22] = system: MALME-3M melanoma
[23] = system: MCF7 breast
[24] = system: MDA-MB-231 breast
[25] = system: MDA-MB-435
[26] = system: MDA-N
[27] = system: MOLT-4 leukemia
[28] = system: NCI-H226 lung
[29] = system: NCI-H23 lung
[30] = system: NCI-H460 lung
[31] = system: NCI-H522 lung
[32] = system: NCI/ADR-RES ovarian
[33] = system: OVCAR-3 ovarian
[34] = system: OVCAR-4 ovarian
[35] = system: OVCAR-5 ovarian
[36] = system: OVCAR-8 ovarian
[37] = system: PC-3 prostate
[38] = system: RXF 393 renal
[39] = system: SF-268 CNS
[40] = system: SF-295 CNS
[41] = system: SF-539 CNS
[42] = system: SK-MEL-2 melanoma
[43] = system: SK-MEL-28 melanoma
[44] = system: SK-MEL-5 melanoma
[45] = system: SK-OV-3 ovarian
[46] = system: SN12C renal
[47] = system: SNB-19 CNS
[48] = system: SNB-75 CNS
[49] = system: SR leukemia
[50] = system: SW-620 colon
[51] = system: T-47D breast
[52] = system: TK-10 renal
[53] = system: U251 CNS
[54] = system: UACC-257 melanoma
[55] = system: UACC-62 melanoma
[56] = system: UO-31 renal
[57] = system: BT-549 breast
[58] = system: HS 578T breast
[59] = system: RPMI-8226 leukemia

With `O=c1c2ccccc2n2c(-c3ccccc3O)nnc2n1-c1ccccc1` the TGI [1] was over 100 µM, the TGI [2] was over 100 µM and the TGI [3] was over 100 µM. The TGI [4] was over 100 µM, the TGI [5] was over 100 µM and the TGI [6] was over 100 µM. For the same molecule, the TGI [7] was over 100 µM, the TGI [8] was over 100 µM and the TGI [9] was over 100 µM. For the same molecule, the TGI [10] was over 100 µM, the TGI [11] was over 100 µM and the TGI [12] was over 100 µM. It also gave a TGI [13] of over 100 µM, a TGI [14] of over 100 µM and a TGI [15] of over 100 µM. It also gave a TGI [16] of over 100 µM, a TGI [17] of over 100 µM and a TGI [18] of over 100 µM. It also gave a TGI [19] of over 100 µM, a TGI [20] of over 100 µM and a TGI [21] of over 100 µM. For the same molecule, the TGI [22] was over 100 µM, the TGI [23] was over 100 µM and the TGI [24] was over 100 µM. The TGI [25] was over 100 µM, the TGI [26] was over 100 µM and the TGI [27] was over 100 µM. It also gave a TGI [28] of over 100 µM, a TGI [29] of over 100 µM and a TGI [30] of over 100 µM. It also gave a TGI [31] of over 100 µM, a TGI [32] of over 100 µM and a TGI [33] of over 100 µM. It also gave a TGI [34] of over 100 µM, a TGI [35] of over 100 µM and a TGI [36] of over 100 µM. It also gave a TGI [37] of over 100 µM, a TGI [38] of over 100 µM and a TGI [39] of over 100 µM. For the same molecule, the TGI [40] was over 100 µM, the TGI [41] was over 100 µM and the TGI [42] was over 100 µM. For the same molecule, the TGI [43] was over 100 µM, the TGI [44] was over 100 µM and the TGI [45] was over 100 µM. The TGI [46] was over 100 µM, the TGI [47] was over 100 µM and the TGI [48] was over 100 µM. The TGI [49] was over 100 µM, the TGI [50] was over 100 µM and the TGI [51] was over 100 µM. The TGI [52] was over 100 µM, the TGI [53] was over 100 µM and the TGI [54] was over 100 µM. The TGI [55] was over 100 µM and the TGI [56] was 5.72 µM.

In the case of `CCOC(=O)c1ccc(N2NC(=O)/C(=C/c3ccc([N+](=O)[O-])o3)C2=O)cc1`, the GI50 [1] is reported as 19.1 µM, the TGI [1] is reported as 37.3 µM and the GI50 [2] is reported as over 37 µM. For the same molecule, the TGI [2] was over 51.6 µM, the GI50 [3] was over 44.7 µM and the TGI [3] was over 60.6 µM. For the same molecule, the GI50 [4] was 8.27 µM, the TGI [4] was 20.8 µM and the GI50 [57] was 20.1 µM. It also gave a TGI [57] of 39.7 µM, a GI50 [5] of 5.76 µM and a TGI [5] of 13.6 µM. It also gave a GI50 [6] of 2 µM, a TGI [6] of over 61.6 µM and a GI50 [7] of 4.06 µM. The TGI [7] was 9.46 µM, the GI50 [8] was 18 µM and the TGI [8] was 32.3 µM. The GI50 [9] was over 37.7 µM, the TGI [9] was over 53.1 µM and the GI50 [10] was over 41.8 µM. It also gave a TGI [10] of over 56.5 µM, a GI50 [11] of 8.37 µM and a TGI [11] of 21.4 µM. The GI50 [12] was 13.6 µM, the TGI [12] was 31.5 µM and the GI50 [13] was 11.7 µM. It also gave a TGI [13] of 47.4 µM, a GI50 [14] of 29.9 µM and a TGI [14] of over 55.7 µM. For the same molecule, the GI50 [15] was 15.6 µM, the TGI [15] was 31.8 µM and the GI50 [58] was over 45.6 µM. For the same molecule, the TGI [58] was over 75.1 µM, the GI50 [16] was 15.8 µM and the TGI [16] was 36.2 µM. It also gave a GI50 [17] of 20 µM, a TGI [17] of 41.4 µM and a GI50 [18] of 9.64 µM. The TGI [18] was over 73.3 µM, the GI50 [19] was over 40.7 µM and the TGI [19] was over 55.3 µM. The GI50 [20] was 17.7 µM, the TGI [20] was 34.4 µM and the GI50 [21] was 17 µM. The TGI [21] was 31.6 µM, the GI50 [22] was 15.6 µM and the TGI [22] was 35.1 µM. The GI50 [23] was 17.4 µM, the TGI [23] was 35.9 µM and the GI50 [24] was 22.5 µM. The TGI [24] was 52.9 µM, the GI50 [25] was 15.1 µM and the TGI [25] was 33 µM. The GI50 [27] was 11.3 µM, the TGI [27] was 53.1 µM and the GI50 [28] was over 41 µM. For the same molecule, the TGI [28] was over 56.5 µM, the GI50 [29] was 21 µM and the TGI [29] was 52.6 µM. The GI50 [30] was over 43.3 µM, the TGI [30] was over 60.7 µM and the GI50 [31] was 4.18 µM. It also gave a TGI [31] of 8.53 µM, a GI50 [32] of 25.9 µM and a TGI [32] of over 71.8 µM. The GI50 [33] was 6.82 µM, the TGI [33] was 17.1 µM and the GI50 [34] was 17 µM. The TGI [34] was 30.9 µM, the GI50 [35] was 19 µM and the TGI [35] was 40.7 µM. For the same molecule, the GI50 [36] was 27.8 µM, the TGI [36] was over 64.2 µM and the GI50 [37] was 21.3 µM. The TGI [37] was 55.8 µM, the GI50 [59] was 30.1 µM and the TGI [59] was over 96.5 µM. It also gave a GI50 [38] of 11.3 µM, a TGI [38] of 26 µM and a GI50 [39] of 24.2 µM. It also gave a TGI [39] of over 55.3 µM, a GI50 [40] of over 39 µM and a TGI [40] of over 56.1 µM. For the same molecule, the GI50 [41] was 18.8 µM, the TGI [41] was 46 µM and the GI50 [42] was over 40.6 µM. It also gave a TGI [42] of over 55.4 µM, a GI50 [43] of 18.6 µM and a TGI [43] of 36 µM. The GI50 [44] was over 40.4 µM, the TGI [44] was over 54.9 µM and the GI50 [45] was over 39.4 µM. The TGI [45] was over 54.1 µM, the GI50 [46] was 27.5 µM and the TGI [46] was over 55.8 µM. The GI50 [47] was over 44.8 µM, the TGI [47] was over 72.2 µM and the GI50 [48] was 27.6 µM. The TGI [48] was over 51.5 µM, the GI50 [49] was 10.1 µM and the TGI [49] was 57.8 µM. It also gave a GI50 [50] of 4.3 µM, a TGI [50] of 9.38 µM and a GI50 [51] of 8.92 µM. The TGI [51] was 33.4 µM, the GI50 [52] was 9.04 µM and the TGI [52] was 23.2 µM. It also gave a GI50 [53] of 39.9 µM, a TGI [53] of over 66.6 µM and a GI50 [54] of 16 µM. The TGI [54] was 30.8 µM, the GI50 [55] was 19.9 µM and the TGI [55] was 43 µM. The GI50 [56] was 5.64 µM and the TGI [56] was 13.8 µM.

Work on `CC1(C)/C(=N\O)C2(OS(=O)(=O)C(F)(F)F)CCC1C2` (stereo not given) yielded a TGI [2] of over 100 µM, a TGI [4] of over 100 µM and a TGI [57] of over 100 µM. It also gave a TGI [5] of over 100 µM, a TGI [6] of over 100 µM and a TGI [9] of over 100 µM. It also gave a TGI [10] of over 100 µM, a TGI [12] of over 100 µM and a TGI [13] of over 100 µM. For the same molecule, the TGI [15] was over 100 µM, the TGI [19] was over 100 µM and the TGI [24] was over 100 µM. The TGI [25] was over 100 µM, the TGI [26] was over 100 µM and the TGI [27] was over 100 µM. The TGI [28] was over 100 µM, the TGI [29] was over 100 µM and the TGI [30] was over 100 µM. It also gave a TGI [32] of over 100 µM, a TGI [34] of over 100 µM and a TGI [36] of over 100 µM. For the same molecule, the TGI [59] was over 100 µM, the TGI [39] was over 100 µM and the TGI [43] was over 100 µM. It also gave a TGI [46] of over 100 µM, a TGI [47] of over 100 µM and a TGI [48] of over 100 µM. It also gave a TGI [49] of over 100 µM, a TGI [52] of over 100 µM and a TGI [53] of over 100 µM. The TGI [54] was over 100 µM, the TGI [55] was over 100 µM and the TGI [56] was over 100 µM.
